≈ marks a conversion by molar mass, not a printed value. Counter-ions that a name gives are not always drawn. Like-named read-outs stand apart in the source and are kept apart here.
Key:
[1] = Metabolic stability in mouse liver microsomes; assay type: in vitro ADME; conditions: 100 μM, 37° C.
Method: The objective of the study is to determine the metabolic stability of the compounds in mouse liver microsomes. Brief procedure: metabolic stability of test compounds were carried out using mouse liver microsomes. The final composition of the assay includes test compound 100 μM (dissolved in DMSO), mouse microsomal protein 0.5 mg/mL and cofactors (G-6-P 5.0 mM, G-6-PDH 0.06 U, MgCl2 2.0 mM, NADP+1.0 mM, UDPGA 0.5 mM, PAPS 0.6 mM and GSH 1 mM). The test compounds were incubated at with mouse liver microsomes with cofactors. After 1 h incubation at 37° C., the reaction was stopped by addition of stop solution (ice cold acetonitrile). The samples were centrifuged and supernatants were analysed using LC/MS/MS. The Percent of parent test compounds remaining after 1 h of incubation time was calculated with respect to the peak areas of at time 0.

CYP 2D6 = target: T1, CYP 2D6 (Homo sapiens, UniProt P10635); assay: Cytochrome-P450 isoforms liability determination; assay type: in vitro ADME
T1 construct: purchased
Method: (§1) To determine the test compound liability towards Human cytochrome 450 (hCYP450) Isoforms fluorescence based screening kits.
(§2) Brief procedure: 2× test compounds were prepared by dilution with deionized water. A serial dilution of the test compound was done. 2× solution of known inhibitor were used as a positive control. 40 μL of the 2× solution that is prepared was added to the desired wells. Two replicates were included for every compound. 50 μL of the Master premix (premix of CYP450 Baclosomes, reagents and regenerating system) was dispensed into each well. The plate was incubated for 20 min at room temperature to allow the compounds to interact with the CYP450enzymes. The reaction was started by adding 10 μL of the substrate and NADP^+ mixture. The plate was incubated for the desired amount of time, and then 10 μL of stop reagent was added to each well to quench the reaction. The fluorescence was measured in the fluorescent plate reader at excitation and emission wavelengths as recommended, depending on the substrate used.

CYP 2C9 = target: T2, CYP 2C9 (Homo sapiens, UniProt P11712); assay: Cytochrome-P450 isoforms liability determination; assay type: in vitro ADME
T2 construct: purchased
Method: as §1, §2

CYP 2C19 = target: T3, CYP 2C19 (Homo sapiens, UniProt P33261); assay: Cytochrome-P450 isoforms liability determination; assay type: in vitro ADME
T3 construct: purchased
Method: as §1, §2

CYP 1A2 = target: T4, CYP 1A2 (Homo sapiens, UniProt P05177); assay: Cytochrome-P450 isoforms liability determination; assay type: in vitro ADME
T4 construct: purchased
T4 sequence (P05177 1-516): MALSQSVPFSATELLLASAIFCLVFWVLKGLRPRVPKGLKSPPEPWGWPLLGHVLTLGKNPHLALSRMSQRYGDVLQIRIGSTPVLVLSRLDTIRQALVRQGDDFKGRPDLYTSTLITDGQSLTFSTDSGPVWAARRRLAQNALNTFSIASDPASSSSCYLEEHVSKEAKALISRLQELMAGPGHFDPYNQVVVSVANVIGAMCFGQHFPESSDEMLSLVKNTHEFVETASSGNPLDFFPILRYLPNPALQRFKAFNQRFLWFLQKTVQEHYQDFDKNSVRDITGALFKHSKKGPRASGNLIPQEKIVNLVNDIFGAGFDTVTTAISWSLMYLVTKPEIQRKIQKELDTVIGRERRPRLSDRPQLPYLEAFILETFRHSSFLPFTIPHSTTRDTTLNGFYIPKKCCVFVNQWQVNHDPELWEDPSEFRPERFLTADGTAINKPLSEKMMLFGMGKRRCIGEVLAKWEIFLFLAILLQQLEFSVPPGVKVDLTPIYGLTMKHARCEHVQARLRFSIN
Method: as §1, §2

HCT-116 = assay: Anti-proliferative activity (GI50); assay type: cell-based; conditions: Homo sapiens
Method: (§3) Cells were seeded in a 96-well cell culture plates at a concentration of 10,000 cells per well and incubated at 37° C. in CO2 incubator.
(§4) Twenty-four hours later cells were treated with different concentrations (100, 10, 1, 0.1, and 0.01 μM) of compound dissolved in DMSO and incubated for 48 hours. For To measurement, 24 hours after seeding the cells, 20 μL of 3-(4.5-dimethyl-2- thiazolyl)-2,5-diphenyl-2H-tetrazolium (MTT) solution per well was added to the T0 plate and incubated for 3 hours at 37° C. in a CO2 incubator.
(§5) The plate containing cells and test compounds was treated similarly after 48 hours of incubation. After 3 hours of MTT addition, well contents were aspirated carefully followed by addition of 100 μL DMSO per well. Plates were agitated to ensure dissolution of the formazan crystals in DMSO and absorbance was read at 570 nm (A570). […] From the percentage growths a dose response curve was generated and GI50 values were interpolated from the growth curves.

K562 = assay: Anti-proliferative activity (GI50); assay type: cell-based; conditions: Homo sapiens
Method: as §3, §4, §5

A431 = assay: Anti-proliferative activity (GI50); assay type: cell-based; conditions: Homo sapiens
Method: as §3, §4, §5

Calu-6 = assay: Anti-proliferative activity (GI50); assay type: cell-based; conditions: Homo sapiens
Method: as §3, §4, §5

KHOS = assay: Anti-proliferative activity (GI50); assay type: cell-based; conditions: read-out: Anti-proliferative activity (GI50) KHOS
Method: as §3, §4, §5

ACHN = assay: Anti-proliferative activity (GI50); assay type: cell-based; conditions: Homo sapiens, read-out: Anti-proliferative activity (GI50) ACHN
Method: as §3, §4, §5

U-87-MG = assay: Anti-proliferative activity (GI50); assay type: cell-based; conditions: Homo sapiens, read-out: Anti-proliferative activity (GI50) U-87-MG
Method: as §3, §4, §5

MCF-7 = assay: Anti-proliferative activity (GI50); assay type: cell-based; conditions: Homo sapiens
Method: as §3, §4, §5

Colo-205 = assay: Anti-proliferative activity (GI50); assay type: cell-based; conditions: Homo sapiens
Method: as §3, §4, §5

[2] = Absolute aqueous solubility; assay type: physicochemical; conditions: 25 °C, thermodynamic from solid; water, about 6 hrs equilibration, 25 deg centigrade, UV
Method: The objective of the study was to determine the absolute solubility of the powder form of the test compounds in water. Brief procedure: The powder form of test compounds was allowed to saturate in an aqueous medium and is equilibrated for about 6 hrs until the compound precipitates. The precipitated solution was centrifuged at 15,000 rpm for 10 mins at 25 deg centigrade and the supernatant solution was analyzed by UV spectrometry. If required the supernatant was diluted further until the absorbance by UV spectroscopy was within the limits of the standard curve obtained with the test compound. λmax was selected from UV spectra having maximum absorbance for that compound.

[3] = fluorescence based kit, read-out: CYP liability (IC50 in μM) CYP 2D6
[4] = fluorescence based kit, read-out: CYP liability (IC50 in μM) CYP 2C9
[5] = fluorescence based kit, read-out: CYP liability (IC50 in μM) CYP 2C19
[6] = fluorescence based kit, read-out: CYP liability (IC50 in μM) CYP 1A2
[7] = HCT-116, Table 9, Colon, read-out: Anti-proliferative activity (GI50) HCT-116
[8] = K562, Table 9, Leukemia, read-out: Anti-proliferative activity (GI50) K562
[9] = A-431, Table 9, Skin, read-out: Anti-proliferative activity (GI50) A431
[10] = Calu-6, Table 9, Lung, read-out: Anti-proliferative activity (GI50) Calu-6
[11] = MCF7, Table 9, Breast, read-out: Anti-proliferative activity (GI50) MCF-7
[12] = COLO 205, Table 9, Colon, read-out: Anti-proliferative activity (GI50) Colo-205

T2 sequence (P11712 whole entry, canonical isoform): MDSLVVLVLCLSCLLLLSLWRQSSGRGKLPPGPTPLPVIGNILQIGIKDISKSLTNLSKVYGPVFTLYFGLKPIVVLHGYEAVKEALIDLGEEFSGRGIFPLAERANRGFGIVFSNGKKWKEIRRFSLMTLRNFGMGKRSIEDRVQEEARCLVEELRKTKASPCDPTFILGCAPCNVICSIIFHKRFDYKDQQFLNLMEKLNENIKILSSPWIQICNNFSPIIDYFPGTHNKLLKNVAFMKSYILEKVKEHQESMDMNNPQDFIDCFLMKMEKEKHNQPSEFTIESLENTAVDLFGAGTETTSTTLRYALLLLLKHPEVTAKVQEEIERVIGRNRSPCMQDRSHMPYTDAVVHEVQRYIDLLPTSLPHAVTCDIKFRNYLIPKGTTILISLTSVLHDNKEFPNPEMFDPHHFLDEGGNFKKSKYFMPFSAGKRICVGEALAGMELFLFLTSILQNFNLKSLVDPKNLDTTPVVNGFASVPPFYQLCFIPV
T3 sequence (P33261 whole entry, canonical isoform): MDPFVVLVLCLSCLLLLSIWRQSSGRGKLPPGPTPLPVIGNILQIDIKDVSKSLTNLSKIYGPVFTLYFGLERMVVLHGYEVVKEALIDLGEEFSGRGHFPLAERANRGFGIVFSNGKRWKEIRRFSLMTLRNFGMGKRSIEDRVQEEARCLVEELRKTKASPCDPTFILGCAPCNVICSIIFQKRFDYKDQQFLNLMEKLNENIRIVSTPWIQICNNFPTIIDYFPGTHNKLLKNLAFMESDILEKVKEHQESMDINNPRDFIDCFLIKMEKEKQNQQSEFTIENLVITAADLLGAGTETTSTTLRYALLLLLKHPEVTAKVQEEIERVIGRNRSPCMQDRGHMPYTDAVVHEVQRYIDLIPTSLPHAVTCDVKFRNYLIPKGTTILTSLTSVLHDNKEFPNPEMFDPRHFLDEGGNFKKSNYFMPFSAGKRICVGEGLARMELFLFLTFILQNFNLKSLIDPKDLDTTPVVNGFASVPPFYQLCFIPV
T1 sequence (P10635 whole entry, canonical isoform): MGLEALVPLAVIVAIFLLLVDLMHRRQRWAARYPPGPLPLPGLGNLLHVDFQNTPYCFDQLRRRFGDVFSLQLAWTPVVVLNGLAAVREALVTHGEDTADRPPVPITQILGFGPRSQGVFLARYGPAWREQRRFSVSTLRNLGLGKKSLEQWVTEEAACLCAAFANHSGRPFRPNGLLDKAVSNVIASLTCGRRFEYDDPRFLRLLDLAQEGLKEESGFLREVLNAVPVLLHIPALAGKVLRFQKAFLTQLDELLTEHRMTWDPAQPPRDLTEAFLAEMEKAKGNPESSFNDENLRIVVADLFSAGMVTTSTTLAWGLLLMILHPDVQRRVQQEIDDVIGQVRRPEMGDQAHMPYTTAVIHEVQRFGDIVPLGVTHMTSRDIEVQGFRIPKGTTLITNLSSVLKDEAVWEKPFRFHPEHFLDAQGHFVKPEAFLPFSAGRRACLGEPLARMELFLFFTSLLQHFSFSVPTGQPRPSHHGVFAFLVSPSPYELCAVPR

SMILES	% Stable compounds after 1 hr incubation [1] [%]	IC50 (CYP 2D6; [3]) [µM]	IC50 (CYP 2C9; [4]) [µM]	IC50 (CYP 2C19; [5]) [µM]	IC50 (CYP 1A2; [6]) [µM]	GI50 (HCT-116; [7]) [nM]	GI50 (K562; [8]) [nM]	GI50 (A431; [9]) [nM]	GI50 (Calu-6; [10]) [nM]	GI50 (KHOS; Table 9, Bone) [nM]	GI50 (ACHN; Table 9, Renal) [nM]	GI50 (U-87-MG; Table 9, Brain) [nM]	GI50 (MCF-7; [11]) [nM]	GI50 (Colo-205; [12]) [nM]	solubility [2] [µg/mL]	also measured
CN(C)Cc1ccc(-c2cn(Cc3ccc(/C=C/C(=O)NO)cc3)nn2)cc1 [Example 21]	65	> 60	> 60	> 60	> 60	200 ± 40	200 ± 40	400 ± 80	400 ± 120	10300 ± 3260	100 ± 40	1000 ± 330	5500 ± 1200	400 ± 40	11600 (≈ 30.7 mM)	–
O=C(NO)c1ccc(Cn2cc(-c3ccc(CN4CCOCC4)cc3)nn2)cc1 [Example 9, N-Hydroxy-4-[4-(4-morpholin-4-ylmethyl-phenyl)-[1,2,3]triazol-1-ylmethyl]-benzamide]	100	> 60	> 60	> 60	> 60	1200 ± 18	300 ± 74	1200 ± 533	1400 ± 310	2800 ± 360	700 ± 110	2700 ± 740	5700 ± 1620	300 ± 71	4700 (≈ 11.9 mM)	–
O=C(/C=C/c1ccc(Cn2cc(-c3ccc(CN4CCCC4)cc3)nn2)cc1)NO [Example 16, N-Hydroxy-3-{4-[4-(4-pyrrolidin-1-ylmethyl-phenyl)-[1,2,3]triazol-1-ylmethyl]-phenyl}-acrylamide]	98	13.2	> 60	> 60	> 60	100 ± 110	190 ± 50	280 ± 50	410 ± 160	11700 ± 1100	90 ± 20	760 ± 660	3500 ± 2600	310 ± 60	9400 (≈ 23.3 mM)	–
O=C(CCCCCCC(=O)Nc1ccccc1)NO [SAHA, Suberoylanilide Hydroxamic Acid, reference compound]	67	–	–	–	–	–	–	–	–	–	–	–	–	–	230 (≈ 0.87 mM)	IC50 (CYP 2D6): 3.6 µM; IC50 (CYP 2C9): 29.7 µM; IC50 (CYP 2C19): 2.9 µM; IC50 (CYP 1A2): 9.7 µM; GI50 (HCT-116; HCT-116, read-out: Anti-proliferative activity (GI50) HCT-116): 2200 nM; GI50 (K562; K562, read-out: Anti-proliferative activity (GI50) K562): 2200 ± 700 nM; GI50 (A431; A-431, read-out: Anti-proliferative activity (GI50) A431): 1900 ± 1000 nM; GI50 (Calu-6; Calu-6, read-out: Anti-proliferative activity (GI50) Calu-6): 3500 ± 500 nM; GI50 (KHOS): 29300 ± 7200 nM; GI50 (ACHN): 1600 ± 500 nM; GI50 (U-87-MG): 6700 ± 1100 nM; GI50 (MCF-7; MCF7, read-out: Anti-proliferative activity (GI50) MCF-7): 5500 ± 1200 nM; GI50 (Colo-205; COLO 205, read-out: Anti-proliferative activity (GI50) Colo-205): 1600 ± 100 nM
O=C(/C=C/c1cccc(Cn2cc(-c3ccc(CN4CCOCC4)cc3)nn2)c1)NO [Example 25, N-Hydroxy-3-{3-[4-(4-morpholin-4-ylmethyl-phenyl)-[1,2,3]triazol-1-ylmethyl]-phenyl}-acrylamide hydrochloride]	57	> 60	51.5	> 60	> 60	200 ± 50	200 ± 80	200 ± 30	600 ± 180	4600 ± 550	200 ± 80	1100 ± 730	2100 ± 2630	200 ± 30	2900	–
O=C(NO)c1ccc(Cn2cc(-c3ccc(CN4CCCC4)cc3)nn2)cc1 [Example 8, N-Hydroxy-4-[4-(4-pyrrolidin-1-ylmethyl-phenyl)-[1,2,3]triazol-1-ylmethyl]-benzamide]	100	26	> 60	> 60	> 60	100 ± 40	300 ± 60	500 ± 130	600 ± 330	2400 ± 400	300 ± 140	500 ± 90	2600 ± 1260	300 ± 50	5100 (≈ 13.5 mM)	–
